Laboratory results: patent US20260317327A1, “CRYSTRAL OF QUINOLINE-SUBSTITUTED COMPOUND” (TAIHO PHARMACEUTICAL CO., LTD., priority 2023, published 2026)

Assays:
[1] = Dynamic vapor sorption (DVS) test; type: physicochemical
Method: A vapor sorption test was performed by using each of the type I crystal, solvate crystal type “b”, and amorphous solid of the compound (1) obtained in Example 1, Comparative Example 1, and Reference Example 1, respectively. The vapor sorption test was performed in accordance with the following conditions. About 10 mg of a sample was loaded into a dedicated holder made of quartz, and the weights of the sample at respective humidities were continuously measured and recorded under the following conditions.

[2] = Comparison of type I crystal with metastable crystal and hydrate crystal (hygroscopicity, storage stability; data not shown); type: physicochemical; details: compared to metastable crystal and hydrate crystal
From the text: In addition to Comparative Example 1, a metastable crystal and a hydrate crystal of the compound (1) were obtained and compared with the type I crystal obtained according to the method described in Example 1.

[3] = Solid stability test (closed system, storage at 60 °C or 80 °C, HPLC purity, crystal form, appearance); type: physicochemical; details: for Change amount (purity) 2 weeks after / Purity 2 weeks after / Color tone change 2 weeks after / Change amount (purity) 4 weeks after / Purity 4 weeks after / Color tone change 4 weeks after: closed system; for Color tone change 2 weeks after / Color tone change 4 weeks after: visual; for Purity at the beginning: HPLC 220 nm
Method: A temperature influence was tested by using the type I crystal, solvate crystal type “b”, and amorphous solid of the compound (1) obtained in Example 1, Comparative Example 1, and Reference Example 1, respectively. An evaluation was performed by the following procedure. In addition, with regard to the appearances of the crystals and the amorphous solid, the states thereof before and after their storage were visually observed. • Storage condition: 60° C. or 80° C. (closed system) (HIFLEX (high-temperature storage machine manufactured by ETAC Engineering Co., Ltd.)) • Storage period: 2 weeks and 4 weeks • Storage amount: about 100 mg • Storage container: a glass bottle
A change in amount of related substances (amount of substances detected in addition to the compound (1)) was analyzed by HPLC in accordance with the following method. A product obtained as follows was used as a sample for analysis: about 1 mg of each sample was weighed as the compound (1); the sample was dissolved in 10 mL of a mixed liquid of acetonitrile and water (3:1 v/v); and 5 μL of the liquid was accurately weighed out.
The amount of the related substances in the sample solution was measured by HPLC analysis. The handling of each apparatus including data processing followed a method and a procedure instructed in the apparatus. • Column: InertSustain C18HP (4.6 mm×150 mm, 3 μm) manufactured by GL Sciences Inc. • UV detection: 220 nm • Column temperature: 40° C. • Flow rate: 1.0 mL/min • Sample cooler: 5° C. • Sample concentration: 0.1 mg/mL • Mobile phase A: 0.1% phosphoric acid • Mobile phase B: acetonitrile

EGFR = details: as disclosed in Patent Document 1 (WO 2015/025936 A1); cited from earlier work

| SMILES | Weight increase ([1]; 95% RH, 25 °C) | Change amount (purity) 2 weeks after ([3]; 60 °C) | Purity 2 weeks after ([3]; 60 °C) | Color tone change 2 weeks after ([3]; 60 °C) | Change amount (purity) 4 weeks after ([3]; 60 °C) | Purity 4 weeks after ([3]; 60 °C) | Color tone change 4 weeks after ([3]; 60 °C) | Change amount (purity) 2 weeks after ([3]; 80 °C) | Purity 2 weeks after ([3]; 80 °C) | Color tone change 2 weeks after ([3]; 80 °C) | Change amount (purity) 4 weeks after ([3]; 80 °C) | Purity 4 weeks after ([3]; 80 °C) | Color tone change 4 weeks after ([3]; 80 °C) | Purity at the beginning ([3]; storage at 60 °C series) | Purity at the beginning ([3]; storage at 80 °C series) | further results |
| --- | --- | --- | --- | --- | --- | --- | --- | --- | --- | --- | --- | --- | --- | --- | --- | --- |
| C=CC(=O)N[C@H]1C=C(C)c2c(-c3cnc4ccccc4c3)c3c(N)ncnc3n2C1 [Type I crystal, (S)—N-(4-amino-6-methyl-5-(quinolin-3-yl)-8,9-dihydropyrimido[5,4-b]indolizin-8-yl)acrylamide] | 1.28% | 0.06% | 98.90% | Absent | 0.02% | 98.86% | Absent | 0.05% | 98.89% | Absent | 0.07% | 98.91% | Absent | 98.84% | 98.84% | Hygroscopicity (in words) ([1]; compared to the solvate crystal type “b” and amorphous solid): less hygroscopic; Weight increase ([1]; up to 75% RH, 25 °C): less than 0.4%; Hygroscopicity, storage stability, etc. (in words) [2]: better properties in terms of hygroscopicity, storage stability, etc.; Chemical purity on storage (in words) ([3]; 60 °C / 80 °C, 2 and 4 weeks): substantially remained unchanged; Overall stability of crystal (in words) ([3]; 60 °C / 80 °C, 2 and 4 weeks): extremely stable crystal; Amount of related substances on storage (in words) ([3]; 60 °C / 80 °C, 2 and 4 weeks, HPLC): substantially no increase in amount of related substances; Crystal form and color tone on storage (in words) ([3]; 60 °C / 80 °C, 2 and 4 weeks, compared to solvate crystal type “b” and amorphous solid): showed no changes |
| C=CC(=O)N[C@H]1C=C(C)c2c(-c3cnc4ccccc4c3)c3c(N)ncnc3n2C1 [compound (1), (S)—N-(4-amino-6-methyl-5-(quinolin-3-yl)-8,9-dihydropyrimido[5,4-b]indolizin-8-yl)acrylamide] | – | – | – | – | – | – | – | – | – | – | – | – | – | – | – | EGFR-inhibiting action (in words) (EGFR): excellent EGFR-inhibiting action |
| C=CC(=O)N[C@H]1C=C(C)c2c(-c3cnc4ccccc4c3)c3c(N)ncnc3n2C1 [Solvate crystal type “b”, (S)—N-(4-amino-6-methyl-5-(quinolin-3-yl)-8,9-dihydropyrimido[5,4-b]indolizin-8-yl)acrylamide] | ≥ 5% | −10.60% | 88.16% | Absent | −11.55% | 87.21% | Absent | −14.49% | 84.57% | Absent | −15.38% | 83.38% | Absent | 98.76% | 98.76% | Weight increase profile (in words) ([1]; 5-95% RH, 25 °C): substantially linear weight increase starting from a low-humidity region |
| C=CC(=O)N[C@H]1C=C(C)c2c(-c3cnc4ccccc4c3)c3c(N)ncnc3n2C1 [Amorphous solid, (S)—N-(4-amino-6-methyl-5-(quinolin-3-yl)-8,9-dihydropyrimido[5,4-b]indolizin-8-yl)acrylamide] | about 10% | −0.66% | 98.09% | Absent | −0.85% | 97.90% | Absent | −6.38% | 92.37% | Coloring | −7.90% | 90.85% | Coloring | 98.75% | 98.75% | Weight increase ([1]; 50% RH, 25 °C): ≥ 2% |
